*1 amine or outer side, *2 acyl side, *3 side chain or, on linkers, in order; H or OH if unused. Where a SMILES comes first, the peptide text is derived from it. [ ]: non-standard residue; d: D form. X2 = CC(=O)CN(CCCC[C@H](N[*:1])C(=O)[*:2])C(C)=O; Pro(trans-4-F) = O=C(O)[C@@H]1C[C@@H](F)CN1; Phe(3-F) = N[C@@H](Cc1cccc(F)c1)C(=O)O; Phe(4-Me) = Cc1ccc(C[C@H](N)C(=O)O)cc1; ΔPro = O=C(O)[C@@H]1C=CCN1; Thz = O=C(O)[C@@H]1CSCN1; Aze = O=C(O)[C@@H]1CCN1
Molecular target: T1, Cbl (RING) protein (Homo sapiens, UniProt P22681)
T1 construct: including the linker and RING domain (codon 358–457); GST (Glutathione S-Transferase); made in house
T1 sequence (P22681 358-457): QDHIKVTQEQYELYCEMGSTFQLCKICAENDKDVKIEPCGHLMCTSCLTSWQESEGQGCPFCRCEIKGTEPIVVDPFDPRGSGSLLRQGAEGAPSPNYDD
Experiment: Fluorescence polarization (FP) assay, competition with FITC-βA-PFKPP-NH2 probe
Assay type: binding
Conditions: probe FITC-βA-PFKPP-NH2 100 nmol/L, Cbl (RING) protein 3 μmol/L, PBS pH 7.4
Protocol: Peptides and peptide mimetics were purchased from MitenChem (China) with a purity ≥ 98%. Concentrations values of reconstituted peptides were determined by amino acid analysis at the protein core facility (Chengdu Medical College). The recombinant Cbl protein was produced by the Chengdu Medical College Protein Core Facility and was described previously. The c-Cbl (RING) protein, including the linker and RING domain (codon 358–457), was tagged with Glutathione S-Transferase (GST) and purified with GSH-Sepharose (Shanghai Biopharma).
The FP assay was developed and validated previously. Briefly, fluorescein-labeled probe (FITC-βA-PFKPP-NH2, 100 nmol/L) and Cbl (RING) protein (3 μmol/L) were mixed and diluted to the final concentration using 0.01% Triton X-100 in PBS (pH = 7.4). Then, 19 μl of this master mix was loaded to each reaction well. The peptides or peptide mimetics were then loaded to the designated wells (1 μl, 10 μmol/L– 0.078 μmol/L, half-fold dilutions). The total fluorescence and polarization values were measured at an excitation wavelength of 485 nm and an emission wavelength of 538 nm using a ZS-2 plate reader. The data was fitted, and the ΔmP, Kd, and Ki values were estimated, using SigmaPlot 11.0.

`CC(=O)N1CCC[C@H]1C(=O)N[C@@H](Cc1cccc(F)c1)C(=O)N[C@@H](CCCCN)C(=O)N1CC=C[C@H]1C(=O)N1CCC[C@H]1C(N)=O` [Peptide 25, Ac-P(h)K(p)P-NH2] (Ac-P[Phe(3-F)]K[ΔPro]P-NH2) and `CC(=O)N1CC=C[C@H]1C(=O)N[C@@H](Cc1cccc(F)c1)C(=O)N[C@@H](CCCCN)C(=O)N1CCC[C@H]1C(=O)N1CCC[C@H]1C(N)=O` [Peptide 32, Ac-(p) (h)KPP-NH2] (Ac-[ΔPro][Phe(3-F)]KPP-NH2) cannot be ordered by Ki: > 250 µM for the first, > 250 µM for the second.

Going from `CC(=O)CN(CCCC[C@H](NC(C)=O)C(=O)N1CCC[C@H]1C(=O)N[C@@H](C)C(=O)N[C@H](C(=O)N[C@@H](CCCCN(O)C(C)=O)C(N)=O)[C@@H](C)O)C(C)=O` [Peptide 45, Ac-(w)PAT(v)-NH2] to `CC(=O)CN(CCCC[C@H](NC(=O)[C@@H](NC(=O)[C@H](C)NC(=O)[C@@H]1CCCN1C(=O)[C@H](CCCCN)NC(C)=O)[C@@H](C)O)C(N)=O)C(C)=O` [Peptide 43, Ac-KPAT(w)-NH2] (Ac-KPAT[X2]-NH2), the Ki falls from 196 ± 12.3 µM to 72.6 ± 9.5 µM (2.7-fold).

Compared with `CC(=O)N1CCC[C@H]1C(=O)N[C@@H](Cc1cccc(F)c1)C(=O)N[C@@H](CCCCN)C(=O)N1CCC[C@H]1C(=O)N1CSC[C@H]1C(N)=O` [Peptide 20, Ac-P(h)KP(r)-NH2] (Ac-P[Phe(3-F)]KP[Thz]-NH2), `CC(=O)N1CCC[C@H]1C(=O)N[C@@H](Cc1cccc(F)c1)C(=O)N[C@@H](CCCCN)C(=O)N1CCC[C@H]1C(=O)N1CC[C@H]1C(N)=O` [Peptide 19, Ac-P(h)KP(q)-NH2] (Ac-P[Phe(3-F)]KP[Aze]-NH2) is higher in Ki: 3.7 ± 0.4 µM for the first, > 250 µM for the second.

`CC(=O)N1CCC[C@@H]1C(=O)N[C@@H](Cc1cccc(F)c1)C(=O)N[C@@H](CCCCN)C(=O)N1CCC[C@H]1C(=O)N1CCC[C@H]1C(N)=O` [Peptide 31, Ac-(o) (h)KPP-NH2] (Ac-[dP][Phe(3-F)]KPP-NH2) and `CC(=O)N1CCC[C@H]1C(=O)N[C@@H](Cc1cccc(F)c1)C(=O)N[C@@H](CCCCN)C(=O)N1CCC[C@@H]1C(=O)N1CCC[C@H]1C(N)=O` [Peptide 24, Ac-P(h)K(o)P-NH2] (Ac-P[Phe(3-F)]K[dP]P-NH2) are within 1.5-fold of each other in Ki: 4.5 ± 0.5 µM for the first, 3.5 ± 0.4 µM for the second.

Compared with `CC(=O)N[C@@H](CCCCN)C(=O)N1C[C@H](F)C[C@H]1C(=O)N[C@@H](C)C(=O)N[C@@H](C)C(=O)N[C@@H](CCCCN)C(N)=O` [Peptide 57, Ac-K(t)AAK-NH2] (Ac-K[Pro(trans-4-F)]AAK-NH2), `CC(=O)N[C@@H](CCCCN)C(=O)N1CC[C@H]1C(=O)N[C@@H](C)C(=O)N[C@H](C(=O)N[C@@H](CCCCN)C(N)=O)[C@@H](C)O` [Peptide 48, Ac-K(q)ATK-NH2] (Ac-K[Aze]ATK-NH2) is 3-fold lower in Ki: 179 ± 10.2 µM for the first, 59.6 ± 13.5 µM for the second. The second binds more tightly here.

Going from `CC[C@H](C)[C@H](NC(=O)[C@@H]1CSCN1C(=O)[C@H](CCCCN)NC(C)=O)C(=O)N[C@H](C(=O)N[C@@H](CCCCN)C(N)=O)[C@@H](C)O` [Peptide 55, Ac-K(r)ITK-NH2] (Ac-K[Thz]ITK-NH2) to `CC(=O)CN(CCCC[C@H](NC(=O)[C@H](Cc1cccc(F)c1)NC(=O)[C@@H]1CSCN1C(C)=O)C(=O)N1CCC[C@H]1C(=O)N1CCC[C@H]1C(N)=O)C(C)=O` [Peptide 39, Ac-(r) (h) (w)PP-NH2] (Ac-[Thz][Phe(3-F)][X2]PP-NH2), the Ki falls from 190 ± 19.2 µM to 28.3 ± 2.8 µM (6.7-fold).

Compared with `CC(=O)N1CCC[C@H]1C(=O)N[C@@H](Cc1cccc(F)c1)C(=O)N[C@@H](CCCCN)C(=O)N1C[C@H](F)C[C@H]1C(=O)N1CCC[C@H]1C(N)=O` [Peptide 29, Ac-P(h)K(t)P-NH2] (Ac-P[Phe(3-F)]K[Pro(trans-4-F)]P-NH2), `CC(=O)N1CCC[C@H]1C(=O)N[C@@H](Cc1cccc(F)c1)C(=O)N[C@@H](CCCCN)C(=O)N1CCC[C@H]1C(=O)N1CC=C[C@H]1C(N)=O` [Peptide 18, Ac-P(h)KP(p)-NH2] (Ac-P[Phe(3-F)]KP[ΔPro]-NH2) is higher in Ki: 24.6 ± 5.8 µM for the first, > 250 µM for the second.

`CC(=O)N1CCC[C@H]1C(=O)N[C@@H](Cc1ccc(C)cc1)C(=O)N[C@@H](CCCCN)C(=O)N1CCC[C@H]1C(=O)N1CCC[C@H]1C(N)=O` [Peptide 8, Ac-P(f)KPP-NH2] (Ac-P[Phe(4-Me)]KPP-NH2) was tested, and the Ki was 5.4 ± 2.2 µM.
